From patent publication US20220280594A1, “APPLICATION OF POLYPEPTIDE OR DERIVATIVE THEREOF” (CHENGDU HUITAI BIOMEDICINE CO., LTD., priority 2019, published 2022)
Ends that are not written are not given here. PEG = not defined here

Columns and labels:
[1] = system: human non-small cell lung cancer cells (A549); assay: scratch assay, migration of A549 cells; assay type: cell-based; settings: A549, 10 μM, 48 hours; control group 75.31 ± 8.19
Outline: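 Confluent A549 monolayers in 24-well plates were scratched, washed with PBS, then cultured 48 h in 2% FBS medium with peptide at 10 μM or PBS control, triplicate wells. Scratch width measured from images; migration rate (%) = (original − current width)/original width × 100.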

[2] = system: human colon cancer cells (HCT-116); assay: scratch assay, migration of HCT-116 cells; assay type: cell-based; settings: HCT-116, 10 μM, 48 hours; control group 47.78 ± 6.07
Outline: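 Confluent HCT-116 monolayers were scratched, washed and cultured 48 h in 2% FBS medium with peptide at 10 μM versus PBS control, triplicate wells. Migration rate (%) = (original minus current scratch width)/original width × 100, from at least 3 images per well.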

[3] = system: human lung cancer cells (95D); assay: scratch assay, migration of 95D cells; assay type: cell-based; settings: 10 μM, 48 hours, control group 55.3 ± 3.19
Outline: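 Confluent 95D monolayers were scratched, washed with PBS and cultured 48 h in 2% FBS medium containing peptide (10 μM) or PBS control, in triplicate wells. Scratch width was measured on images; migration rate (%) = (original width − current width)/original width × 100.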

[4] = system: human melanoma cells (A375); assay: scratch assay, migration of A375 cells; assay type: cell-based; settings: A375, 10 μM, 48 hours; control group 44.03 ± 6.21
Outline: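 Monolayers scratched, washed with PBS and cultured 48 hours in 2% FBS medium with polypeptides N1-N54 at 10 μM or PBS control, three wells per group. Migration rate (%) = (original − current scratch width)/original width×100, from imaged scratch widths.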

[5] = system: human lung cancer cells (A549) subcutaneous xenograft; assay: lung cancer subcutaneous xenograft animal model, intravenous injection; assay type: in vivo, mice (BALB/c-nu/nu); settings: intravenous 60 mg/kg once every other day, 20 days; for Weight of tumor (g) (mean ± SD): control 2.53 ± 0.17; for Volume of tumor (mm^3) (mean ± SD): control 3373.26 ± 581.44
Outline: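 Female BALB/c-nu/nu mice (4-6 weeks) inoculated subcutaneously with ~2×10^6 A549 cells; grouped once tumours exceeded 100 mm^3. Peptides given intravenously at 60 mg/kg for 20 days versus model control. Tumour weight and volume measured at dissection; body weight recorded every other day.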

[6] = system: human prostate cancer cells (22RV1); assay: scratch assay, migration of 22RV1 cells; assay type: cell-based; settings: 22RV1, 10 μM, 48 hours; control group 25.41 ± 5.01
Outline: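 22RV1 monolayers (seeded 1-2×10^5 cells/well) were scratched, washed, then given 2% FBS medium with 10 μM polypeptide or PBS, triplicate wells, for 48 h. Migration rate (%) = (original − current scratch width)/original width ×100, from ≥3 images per well.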

[7] = system: human pharyngeal squamous-cell carcinoma cells (Fadu); assay: scratch assay, migration of Fadu cells; assay type: cell-based; settings: 10 μM, 48 hours, control group 28.76 ± 4.08
Outline: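 Confluent Fadu monolayers scratched, then cultured 48 h with 10 μM polypeptide in medium with 2% FBS; PBS control, triplicate wells. Migration rate (%) = (original − current scratch width)/original width × 100, from ≥3 images per well.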

[8] = system: human lung squamous carcinoma cells (NCI-H226); assay: scratch assay, migration of NCI-H226 cells; assay type: cell-based; settings: NCI-H226, 10 μM, 48 hours; control group 65.31 ± 3.19
Outline: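 A straight scratch was made in confluent NCI-H226 monolayers (1-2×10^5 cells/well). Cells were then kept 48 h in 2% FBS medium with 10 μM polypeptide or PBS control, triplicate wells. Migration rate (%) = (original − current scratch width)/original width ×100, from imaged scratch widths.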

[9] = system: human liver cancer cells (HepG2); assay: scratch assay, migration of HepG2 cells; assay type: cell-based; settings: HepG2, 10 μM, 48 hours; control group 71.01 ± 6.63
Outline: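 HepG2 monolayers scratched, then cultured 48 h in 2% FBS medium with test polypeptides at 10 μM versus PBS control, triplicate wells. Migration rate (%) computed from original versus current scratch width in images.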

[10] = system: human breast cancer cells (MCF-7); assay: scratch assay, migration of MCF-7 cells; assay type: cell-based; settings: MCF-7, 10 μM, 48 hours; control group 30.97 ± 1.79
Outline: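 MCF-7 monolayers scratched, then cultured 48 hours in 2% FBS medium with test peptide at 10 μM versus PBS control, triplicate wells. Migration rate (%) = (original − current scratch width)/original width × 100, measured from images.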

[11] = system: human breast cancer cells (MDA-MB-231); assay: scratch assay, migration of MDA-MB-231 cells; assay type: cell-based; settings: MDA-MB-231, 10 μM, 48 hours; control group 36.19 ± 5.15
Outline: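 MDA-MB-231 monolayers (1-2×10^5 cells/well) were scratched, then kept 48 h in medium with 2% FBS containing polypeptide at 10 μM, with a PBS control, in triplicate wells. Migration rate (%) was taken from scratch width: (original − current)/original ×100.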

Substance	Migration rate (%) (mean ± SD, P) [1]	Migration rate (%) (mean ± SD, P) [2]	Migration rate (%) (mean ± SD, P) [3]	Migration rate (%) (mean ± SD, P) [4]	Weight of tumor (g) (mean ± SD) [5]	Volume of tumor (mm^3) (mean ± SD) [5]	Migration rate (%) (mean ± SD, P) [6]	Migration rate (%) (mean ± SD, P) [7]	Migration rate (%) (mean ± SD, P) [8]	Migration rate (%) (mean ± SD, P) [9]	Migration rate (%) (mean ± SD, P) [10]	Migration rate (%) (mean ± SD, P) [11]
N49: SEQ ID NO: 1 with A7R, deletion of positions 1-2 and position 18, PEG modification at the carboxyl terminal (VRFLRKENVTQDAED-{PEG}; reading uncertain)	27.20 ± 6.23,** %	18.84 ± 2.99,** %	29.37 ± 3.62,** %	6.51 ± 1.53,*** %	0.73 ± 0.26 g	1513.42 ± 287.49 mm^3	6.18 ± 1.89,** %	6.29 ± 2.62,*** %	38.90 ± 5.49,** %	16.45 ± 5.88,*** %	7.29 ± 3.80,** %	13.41 ± 3.12,** %
N53: SEQ ID NO: 1 with A15R, one amino acid added at each terminal, PEG modification at the carboxyl terminal (FYRVRFLAKENVTQDREDNC-{PEG}; reading uncertain)	58.05 ± 3.60,* %	14.42 ± 3.21,*** %	21.05 ± 6.60,** %	18.83 ± 4.71,** %	0.75 ± 0.27 g	1549.08 ± 539.99 mm^3	10.75 ± 3.22,* %	13.8 ± 3.05,** %	41.05 ± 4.60,** %	35.85 ± 4.32,** %	9.45 ± 2.39,** %	18.05 ± 6.08,* %
N39: SEQ ID NO: 1 with addition of two amino acids and PEG modification at the carboxyl terminal (YRVRFLAKENVTQDAEDNTC-{PEG}; reading uncertain)	56.39 ± 6.30,* %	4.29 ± 2.88,*** %	43.19 ± 4.82,* %	9.21 ± 3.20,*** %	0.98 ± 0.3 g	918.84 ± 288.77 mm^3	4.21 ± 2.81,** %	18.48 ± 5.74,* %	21.82 ± 5.54,*** %	15.73 ± 6.79,*** %	7.74 ± 2.46,** %	19.08 ± 3.17,* %
N37: SEQ ID NO: 1 with addition of two amino acids to the carboxyl terminal and PEG modification at the amino terminal ({PEG}-YRVRFLAKENVTQDAEDNCT; reading uncertain)	49.45 ± 10.09,* %	4.99 ± 1.68,*** %	27.76 ± 6.51,** %	14.48 ± 2.51,*** %	0.89 ± 0.39 g	915.97 ± 199.07 mm^3	4.86 ± 1.91,** %	15.89 ± 3.88,* %	11.33 ± 9.49,*** %	13.81 ± 6.14,*** %	8.64 ± 3.76,** %	20.43 ± 3.23,* %
N31: SEQ ID NO: 1 with deletion of positions 3, 4, 11 and 15-18 and PEG modification at the carboxyl terminal (YRFLAKENTQD-{PEG}; reading uncertain)	24.44 ± 8.15,** %	7.39 ± 2.06,*** %	25.70 ± 3.17,** %	12.5 ± 2.29,*** %	0.62 ± 0.2 g	1439.74 ± 546.27 mm^3	12.40 ± 2.24,* %	12.13 ± 5.10,** %	15.70 ± 8.17,*** %	13.64 ± 7.59,*** %	9.27 ± 2.23,** %	18.7 ± 3.05,* %
N42: SEQ ID NO: 1 with deletion of positions 1-5 and 15-18, PEG at the amino terminal, one amino acid added at the carboxyl terminal ({PEG}-LAKENVTQDR; reading uncertain)	60.74 ± 3.40,* %	6.75 ± 2.33,*** %	35.42 ± 4.97,** %	8.92 ± 2.25,*** %	0.83 ± 0.31 g	1149.73 ± 346.36 mm^3	5.89 ± 1.02,** %	18.63 ± 2.79,* %	17.46 ± 6.33,*** %	30.92 ± 4.57,** %	10.04 ± 2.28,** %	17.91 ± 3.66,** %
N4: SEQ ID NO: 1 with deletion of positions 15-18 and positions 1-3 (RFLAKENVTQD)	51.53 ± 3.72,* %	25.48 ± 2.79,** %	31.65 ± 3.82,** %	5.06 ± 2.32,*** %	0.56 ± 0.19 g	1515.07 ± 507.99 mm^3	13.44 ± 3.24,* %	14.32 ± 2.67,** %	10.00 ± 10.27,** %	25.37 ± 6.11,*** %	13.6 ± 2.28,** %	21.44 ± 2.59,* %
N27: SEQ ID NO: 1 with addition of one amino acid at the carboxyl terminal and PEG modification at the carboxyl terminal (YRVRFLAKENVTQDAEDNC-{PEG}; reading uncertain)	37.20 ± 6.23,** %	24.14 ± 3.00,** %	37.20 ± 6.23,* %	12.52 ± 3.78,*** %	1.14 ± 0.23 g	1402.37 ± 405.66 mm^3	14.76 ± 2.79,* %	15.99 ± 3.96,* %	31.19 ± 5.96,*** %	39.99 ± 3.19,** %	8.40 ± 2.44,** %	9.62 ± 3.01,*** %
